Legend:
[1] = target: anti-cotinine antibody (SEQ ID NO: 11/12, rabbit variable region with human IgG1 Fc DE mutation); assay: SPR binding of anti-cotinine antibody to ARM compounds, Biacore T200, 37° C. (Example 202); conditions: SPR Biacore T200, 37° C., pH 7.4, antibody SEQ ID NO: 11/12 captured on protein A; Kd in molar
Method in brief: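 Run at 37 °C in 10 mM HEPES pH 7.4, 150 mM NaCl, 0.005% P20, 1% DMSO, with compounds titrated from 200 nM (five 3-fold steps) over protein A–captured antibody. A 1:1 kinetic model on double-referenced data gave rate constants, Kd as koff/kon and residence time 1/koff; results as pKd, run-averaged.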

[2] = system: CCR2 expressing cells (CD11b+Ly6c+Hi) in peripheral blood; assay: In vivo depletion assay, flow cytometry of peripheral blood (Example 201); design: species or system human CCR2 knock-in mice (C57 background); conditions: hCCR2 knock-in mice, IV 0.1 mpk compound + 10 mpk anti-cotinine antibody (SEQ ID NO: 13/14), peripheral blood at 48 hr
Method in brief: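 Flow cytometry of blood collected at study termination quantified percent depletion of CD11b+Ly6c+Hi cells and CCR2 expression, using surface markers CD45, CD3, CD11b, Ly6C, human CCR2 after Fc block, with 7AAD viability stain. Compound given in saline:DMSO:PBS formulation, optionally combined with anti-cotinine antibody, incubated 30 min before administration.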

| Compound | pKd of Antibody for ARM Compound of Formula (I) [1] | % Depletion of CCR2 expressing cells [2] |
| --- | --- | --- |
| CN1C(=O)C[C@H](C(=O)NCCOCCNC(=O)[C@H]2C[C@H](NC(=O)CCOCCC(=O)N[C@@H]3C[C@H](NC(C)(C)C)CC[C@@H]3N3CC[C@H](Nc4ncnc5ccc(C(F)(F)F)cc45)C3=O)C2)[C@H]1c1cccnc1 [Example 188, (2S,3S)-N-(2-(2-((1R,3S)-3-(3-(3-(((1R,2S,5R)-5-(tert-butylamino)-2-((S)-2-oxo-3-((6-(trifluoromethyl)quinazolin-4-yl)amino)pyrrolidin-1-yl)cyclohexyl)amino)-3-oxopropoxy)propanamido)cyclobutane-1-carboxamido)ethoxy)ethyl)-1-methyl-5-oxo-2-(pyridin-3-yl)pyrrolidine-3-carboxamide] | 8.975 | 91% |
| CC(C)N(C)[C@@H]1CC[C@H](N2CC[C@H](Nc3ncnc4ccc(C(F)(F)F)cc34)C2=O)[C@H](NC(=O)CCCN2CCC3(CCN(CCCNC(=O)[C@H]4CC(=O)N(C)[C@@H]4c4cccnc4)CC3)CC2)C1 [Example 191, (2S,3S)-N-(3-(9-(4-(((1R,2S,5R)-5-(Isopropyl(methyl)amino)-2-((S)-2-oxo-3-((6-(trifluoromethyl)quinazolin-4-yl)amino)pyrrolidin-1-yl)cyclohexyl)amino)-4-oxobutyl)-3,9-diazaspiro[5.5]undecan-3-yl)propyl)-1-methyl-5-oxo-2-(pyridin-3-yl)pyrrolidine-3-carboxamide] | 9.68 | 69% |
| CC(C)N(C)[C@@H]1CC[C@H](N2CC[C@H](Nc3ncnc4ccc(C(F)(F)F)cc34)C2=O)[C@H](NC(=O)[C@H]2CC[C@H](C(=O)NCCCOCCCCOCCCNC(=O)[C@H]3CC(=O)N(C)[C@@H]3c3cccnc3)CC2)C1 [Example 194, (1r,4R)-N^1-((1R,2S,5R)-5-(Isopropyl(methyl)amino)-2-((S)-2-oxo-3-((6-(trifluoromethyl)quinazolin-4-yl)amino)pyrrolidin-1-yl)cyclohexyl)-N^4-(3-(4-(3-((2S,3S)-1-methyl-5-oxo-2-(pyridin-3-yl)pyrrolidine-3-carboxamido)propoxy)butoxy)propyl)cyclohexane-1,4-dicarboxamide] | 9.5415 | 96% |
